ChEMBL document CHEMBL5442219

Key:
Conditions in all cases: Compound concentration 10 µM
[1] = target: D(3) dopamine receptor (Homo sapiens) (UniProt P35462)
Description: PDSP Primary Binding target: DRD3 - Compounds are tested at 10 uM concentration, plate are incubated at room temperature in the dark for 90 minutes. Reaction are stopped by vacuum filtration onto 0.3% polyethyleneimine soaked filter mats using Filtermate harvester. Scintilation cocktail is then melted onto microwave-dried filters on a hot plate and the radio activity is counted in Microbia counter.

[2] = target: Histamine H1 receptor (Homo sapiens) (UniProt P35367)
Description: PDSP Primary Binding target: HRH1 - Compounds are tested at 10 uM concentration, plate are incubated at room temperature in the dark for 90 minutes. Reaction are stopped by vacuum filtration onto 0.3% polyethyleneimine soaked filter mats using Filtermate harvester. Scintilation cocktail is then melted onto microwave-dried filters on a hot plate and the radio activity is counted in Microbia counter.

[3] = target: Histamine H2 receptor (Homo sapiens) (UniProt P25021)
Description: PDSP Primary Binding target: HRH2 - Compounds are tested at 10 uM concentration, plate are incubated at room temperature in the dark for 90 minutes. Reaction are stopped by vacuum filtration onto 0.3% polyethyleneimine soaked filter mats using Filtermate harvester. Scintilation cocktail is then melted onto microwave-dried filters on a hot plate and the radio activity is counted in Microbia counter.

[4] = target: T1, Muscarinic acetylcholine receptor M2 (Homo sapiens) (UniProt P08172)
T1 sequence (whole entry): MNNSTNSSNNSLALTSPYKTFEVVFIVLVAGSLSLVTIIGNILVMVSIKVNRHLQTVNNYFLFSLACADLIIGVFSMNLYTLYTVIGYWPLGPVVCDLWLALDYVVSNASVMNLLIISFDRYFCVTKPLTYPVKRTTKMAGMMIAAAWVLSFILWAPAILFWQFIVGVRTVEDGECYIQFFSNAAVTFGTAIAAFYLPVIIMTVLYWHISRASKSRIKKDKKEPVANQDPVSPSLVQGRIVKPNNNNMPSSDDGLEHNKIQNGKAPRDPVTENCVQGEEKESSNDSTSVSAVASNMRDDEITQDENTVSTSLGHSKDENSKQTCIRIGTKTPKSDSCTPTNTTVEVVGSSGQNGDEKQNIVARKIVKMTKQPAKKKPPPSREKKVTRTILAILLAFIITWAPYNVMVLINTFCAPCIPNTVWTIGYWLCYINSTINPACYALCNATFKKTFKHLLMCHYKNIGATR
Description: PDSP Primary Binding target: CHRM2 - Compounds are tested at 10 uM concentration, plate are incubated at room temperature in the dark for 90 minutes. Reaction are stopped by vacuum filtration onto 0.3% polyethyleneimine soaked filter mats using Filtermate harvester. Scintilation cocktail is then melted onto microwave-dried filters on a hot plate and the radio activity is counted in Microbia counter.

[5] = target: Translocator protein (Homo sapiens) (UniProt P30536)
Description: PDSP Primary Binding target: TSPO - Compounds are tested at 10 uM concentration, plate are incubated at room temperature in the dark for 90 minutes. Reaction are stopped by vacuum filtration onto 0.3% polyethyleneimine soaked filter mats using Filtermate harvester. Scintilation cocktail is then melted onto microwave-dried filters on a hot plate and the radio activity is counted in Microbia counter.

[6] = target: 5-hydroxytryptamine receptor 5A (Homo sapiens) (UniProt P47898)
Description: PDSP Primary Binding target: HTR5A - Compounds are tested at 10 uM concentration, plate are incubated at room temperature in the dark for 90 minutes. Reaction are stopped by vacuum filtration onto 0.3% polyethyleneimine soaked filter mats using Filtermate harvester. Scintilation cocktail is then melted onto microwave-dried filters on a hot plate and the radio activity is counted in Microbia counter.

[7] = target: Beta-3 adrenergic receptor (Homo sapiens) (UniProt P13945)
Description: PDSP Primary Binding target: ADRB3 - Compounds are tested at 10 uM concentration, plate are incubated at room temperature in the dark for 90 minutes. Reaction are stopped by vacuum filtration onto 0.3% polyethyleneimine soaked filter mats using Filtermate harvester. Scintilation cocktail is then melted onto microwave-dried filters on a hot plate and the radio activity is counted in Microbia counter.

[8] = target: T2, Muscarinic acetylcholine receptor M5 (Homo sapiens) (UniProt P08912)
T2 sequence (whole entry): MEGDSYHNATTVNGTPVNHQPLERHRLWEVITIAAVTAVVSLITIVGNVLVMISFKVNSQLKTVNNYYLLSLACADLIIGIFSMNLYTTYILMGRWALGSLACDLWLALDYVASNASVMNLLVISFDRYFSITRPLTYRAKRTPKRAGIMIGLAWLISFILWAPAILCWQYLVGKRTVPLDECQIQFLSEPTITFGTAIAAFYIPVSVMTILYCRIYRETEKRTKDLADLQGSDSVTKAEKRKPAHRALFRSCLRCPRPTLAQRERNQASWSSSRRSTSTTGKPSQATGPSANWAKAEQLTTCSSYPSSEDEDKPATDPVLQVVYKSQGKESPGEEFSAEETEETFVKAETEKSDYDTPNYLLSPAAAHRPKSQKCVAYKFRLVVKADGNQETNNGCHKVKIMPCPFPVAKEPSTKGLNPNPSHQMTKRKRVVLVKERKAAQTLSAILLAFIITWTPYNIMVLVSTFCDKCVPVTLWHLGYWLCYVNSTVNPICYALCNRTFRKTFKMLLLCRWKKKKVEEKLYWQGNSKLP
Description: PDSP Primary Binding target: CHRM5 - Compounds are tested at 10 uM concentration, plate are incubated at room temperature in the dark for 90 minutes. Reaction are stopped by vacuum filtration onto 0.3% polyethyleneimine soaked filter mats using Filtermate harvester. Scintilation cocktail is then melted onto microwave-dried filters on a hot plate and the radio activity is counted in Microbia counter.

[9] = target: T3, Alpha-2C adrenergic receptor (Homo sapiens) (UniProt P18825)
T3 sequence (whole entry): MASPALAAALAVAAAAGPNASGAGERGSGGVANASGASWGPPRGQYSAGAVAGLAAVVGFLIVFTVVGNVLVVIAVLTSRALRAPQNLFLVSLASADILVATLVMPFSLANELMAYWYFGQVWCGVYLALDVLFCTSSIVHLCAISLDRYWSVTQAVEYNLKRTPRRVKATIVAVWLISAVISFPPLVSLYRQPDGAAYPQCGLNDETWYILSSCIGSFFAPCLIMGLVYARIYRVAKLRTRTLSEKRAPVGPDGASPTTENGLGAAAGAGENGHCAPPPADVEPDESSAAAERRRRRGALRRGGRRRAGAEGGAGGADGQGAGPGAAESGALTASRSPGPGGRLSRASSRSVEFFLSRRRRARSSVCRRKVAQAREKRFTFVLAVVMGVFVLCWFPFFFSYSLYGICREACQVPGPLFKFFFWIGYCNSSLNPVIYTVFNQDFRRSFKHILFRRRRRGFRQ
Description: PDSP Primary Binding target: ADRA2C - Compounds are tested at 10 uM concentration, plate are incubated at room temperature in the dark for 90 minutes. Reaction are stopped by vacuum filtration onto 0.3% polyethyleneimine soaked filter mats using Filtermate harvester. Scintilation cocktail is then melted onto microwave-dried filters on a hot plate and the radio activity is counted in Microbia counter.

[10] = target: D(2) dopamine receptor (Homo sapiens) (UniProt P14416)
Description: PDSP Primary Binding target: DRD2 - Compounds are tested at 10 uM concentration, plate are incubated at room temperature in the dark for 90 minutes. Reaction are stopped by vacuum filtration onto 0.3% polyethyleneimine soaked filter mats using Filtermate harvester. Scintilation cocktail is then melted onto microwave-dried filters on a hot plate and the radio activity is counted in Microbia counter.

[11] = target: Sodium-dependent dopamine transporter (Homo sapiens) (UniProt Q01959)
Description: PDSP Primary Binding target: SLC6A3 - Compounds are tested at 10 uM concentration, plate are incubated at room temperature in the dark for 90 minutes. Reaction are stopped by vacuum filtration onto 0.3% polyethyleneimine soaked filter mats using Filtermate harvester. Scintilation cocktail is then melted onto microwave-dried filters on a hot plate and the radio activity is counted in Microbia counter.

[12] = target: 5-hydroxytryptamine receptor 7 (Homo sapiens) (UniProt P34969)
Description: PDSP Primary Binding target: HTR7 - Compounds are tested at 10 uM concentration, plate are incubated at room temperature in the dark for 90 minutes. Reaction are stopped by vacuum filtration onto 0.3% polyethyleneimine soaked filter mats using Filtermate harvester. Scintilation cocktail is then melted onto microwave-dried filters on a hot plate and the radio activity is counted in Microbia counter.

[13] = target: Sodium-dependent serotonin transporter (Homo sapiens) (UniProt P31645)
Description: PDSP Primary Binding target: SLC6A4 - Compounds are tested at 10 uM concentration, plate are incubated at room temperature in the dark for 90 minutes. Reaction are stopped by vacuum filtration onto 0.3% polyethyleneimine soaked filter mats using Filtermate harvester. Scintilation cocktail is then melted onto microwave-dried filters on a hot plate and the radio activity is counted in Microbia counter.

[14] = target: 5-hydroxytryptamine receptor 1B (Homo sapiens) (UniProt P28222)
Description: PDSP Primary Binding target: HTR1B - Compounds are tested at 10 uM concentration, plate are incubated at room temperature in the dark for 90 minutes. Reaction are stopped by vacuum filtration onto 0.3% polyethyleneimine soaked filter mats using Filtermate harvester. Scintilation cocktail is then melted onto microwave-dried filters on a hot plate and the radio activity is counted in Microbia counter.

[15] = target: T4, 5-hydroxytryptamine receptor 1A (Homo sapiens) (UniProt P08908)
T4 sequence (whole entry): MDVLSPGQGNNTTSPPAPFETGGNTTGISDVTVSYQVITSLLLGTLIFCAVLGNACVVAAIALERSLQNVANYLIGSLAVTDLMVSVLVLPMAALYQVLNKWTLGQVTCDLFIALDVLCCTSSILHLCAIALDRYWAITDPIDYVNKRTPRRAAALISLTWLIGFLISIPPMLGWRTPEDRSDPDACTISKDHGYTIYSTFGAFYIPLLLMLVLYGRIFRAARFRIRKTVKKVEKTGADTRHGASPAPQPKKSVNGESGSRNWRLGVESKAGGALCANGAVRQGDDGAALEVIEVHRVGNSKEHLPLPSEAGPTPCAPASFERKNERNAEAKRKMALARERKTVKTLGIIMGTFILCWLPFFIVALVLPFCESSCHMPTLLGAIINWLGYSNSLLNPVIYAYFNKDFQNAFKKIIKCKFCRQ
Description: PDSP Primary Binding target: HTR1A - Compounds are tested at 10 uM concentration, plate are incubated at room temperature in the dark for 90 minutes. Reaction are stopped by vacuum filtration onto 0.3% polyethyleneimine soaked filter mats using Filtermate harvester. Scintilation cocktail is then melted onto microwave-dried filters on a hot plate and the radio activity is counted in Microbia counter.

[16] = target: Sigma non-opioid intracellular receptor 1 (Homo sapiens) (UniProt Q99720)
Sequence of Sigma non-opioid intracellular receptor 1 (Homo sapiens) (Q99720 whole entry): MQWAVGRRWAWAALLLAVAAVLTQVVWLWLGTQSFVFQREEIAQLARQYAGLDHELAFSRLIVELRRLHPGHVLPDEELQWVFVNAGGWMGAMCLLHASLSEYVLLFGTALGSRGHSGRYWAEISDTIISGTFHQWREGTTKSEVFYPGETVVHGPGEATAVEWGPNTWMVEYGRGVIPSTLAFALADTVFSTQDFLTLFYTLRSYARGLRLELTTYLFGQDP
Description: PDSP Primary Binding target: SIGMAR1 - Compounds are tested at 10 uM concentration, plate are incubated at room temperature in the dark for 90 minutes. Reaction are stopped by vacuum filtration onto 0.3% polyethyleneimine soaked filter mats using Filtermate harvester. Scintilation cocktail is then melted onto microwave-dried filters on a hot plate and the radio activity is counted in Microbia counter.

Sequence of D(3) dopamine receptor (Homo sapiens) (P35462 whole entry): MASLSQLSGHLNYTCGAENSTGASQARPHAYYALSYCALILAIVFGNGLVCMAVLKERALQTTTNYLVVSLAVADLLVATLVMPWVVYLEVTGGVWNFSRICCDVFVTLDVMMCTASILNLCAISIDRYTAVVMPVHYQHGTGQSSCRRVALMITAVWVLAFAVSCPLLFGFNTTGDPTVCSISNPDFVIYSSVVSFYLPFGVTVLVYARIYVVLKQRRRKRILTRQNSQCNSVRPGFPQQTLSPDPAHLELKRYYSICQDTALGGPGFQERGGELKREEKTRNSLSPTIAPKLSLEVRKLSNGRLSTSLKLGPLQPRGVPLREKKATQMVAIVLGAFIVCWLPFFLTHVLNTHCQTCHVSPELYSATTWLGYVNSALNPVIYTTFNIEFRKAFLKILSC
Sequence of 5-hydroxytryptamine receptor 1B (Homo sapiens) (P28222 whole entry): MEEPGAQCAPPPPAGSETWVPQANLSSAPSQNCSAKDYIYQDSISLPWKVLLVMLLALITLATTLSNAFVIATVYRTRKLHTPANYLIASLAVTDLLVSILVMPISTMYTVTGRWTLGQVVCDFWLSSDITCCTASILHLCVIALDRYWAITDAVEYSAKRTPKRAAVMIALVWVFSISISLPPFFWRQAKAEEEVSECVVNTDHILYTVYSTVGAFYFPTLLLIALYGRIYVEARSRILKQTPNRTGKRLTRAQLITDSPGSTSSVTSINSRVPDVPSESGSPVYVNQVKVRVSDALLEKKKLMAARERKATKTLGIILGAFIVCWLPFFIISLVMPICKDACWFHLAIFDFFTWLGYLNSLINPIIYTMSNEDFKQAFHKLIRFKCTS
Sequence of Sodium-dependent dopamine transporter (Homo sapiens) (Q01959 whole entry): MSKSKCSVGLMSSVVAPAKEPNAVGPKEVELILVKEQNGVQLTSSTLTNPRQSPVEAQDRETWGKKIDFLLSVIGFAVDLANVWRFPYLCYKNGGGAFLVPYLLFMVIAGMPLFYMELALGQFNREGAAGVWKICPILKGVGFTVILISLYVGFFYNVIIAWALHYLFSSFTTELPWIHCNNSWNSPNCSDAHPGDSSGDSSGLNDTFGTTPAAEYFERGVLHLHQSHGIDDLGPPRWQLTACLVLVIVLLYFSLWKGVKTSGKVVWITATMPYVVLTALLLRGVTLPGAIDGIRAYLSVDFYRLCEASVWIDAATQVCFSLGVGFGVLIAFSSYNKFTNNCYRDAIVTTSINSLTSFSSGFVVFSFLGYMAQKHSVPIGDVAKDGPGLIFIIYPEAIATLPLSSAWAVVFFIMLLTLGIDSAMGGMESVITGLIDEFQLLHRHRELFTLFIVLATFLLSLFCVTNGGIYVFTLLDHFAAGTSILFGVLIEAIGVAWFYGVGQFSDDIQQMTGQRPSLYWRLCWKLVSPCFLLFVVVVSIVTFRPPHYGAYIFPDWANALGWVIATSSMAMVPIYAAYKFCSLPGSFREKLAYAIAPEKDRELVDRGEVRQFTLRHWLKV
Sequence of Histamine H2 receptor (Homo sapiens) (P25021 whole entry): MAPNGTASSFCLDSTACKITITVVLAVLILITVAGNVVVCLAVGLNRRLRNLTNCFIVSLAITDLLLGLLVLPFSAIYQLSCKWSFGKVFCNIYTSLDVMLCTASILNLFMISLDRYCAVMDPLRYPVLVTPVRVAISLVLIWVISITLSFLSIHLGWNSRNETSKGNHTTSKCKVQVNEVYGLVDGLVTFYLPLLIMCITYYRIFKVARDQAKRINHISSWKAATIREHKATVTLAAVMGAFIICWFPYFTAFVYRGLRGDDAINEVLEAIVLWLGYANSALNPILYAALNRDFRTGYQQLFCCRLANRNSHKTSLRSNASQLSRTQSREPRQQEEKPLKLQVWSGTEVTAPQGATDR
Sequence of Sodium-dependent serotonin transporter (Homo sapiens) (P31645 whole entry, looked up): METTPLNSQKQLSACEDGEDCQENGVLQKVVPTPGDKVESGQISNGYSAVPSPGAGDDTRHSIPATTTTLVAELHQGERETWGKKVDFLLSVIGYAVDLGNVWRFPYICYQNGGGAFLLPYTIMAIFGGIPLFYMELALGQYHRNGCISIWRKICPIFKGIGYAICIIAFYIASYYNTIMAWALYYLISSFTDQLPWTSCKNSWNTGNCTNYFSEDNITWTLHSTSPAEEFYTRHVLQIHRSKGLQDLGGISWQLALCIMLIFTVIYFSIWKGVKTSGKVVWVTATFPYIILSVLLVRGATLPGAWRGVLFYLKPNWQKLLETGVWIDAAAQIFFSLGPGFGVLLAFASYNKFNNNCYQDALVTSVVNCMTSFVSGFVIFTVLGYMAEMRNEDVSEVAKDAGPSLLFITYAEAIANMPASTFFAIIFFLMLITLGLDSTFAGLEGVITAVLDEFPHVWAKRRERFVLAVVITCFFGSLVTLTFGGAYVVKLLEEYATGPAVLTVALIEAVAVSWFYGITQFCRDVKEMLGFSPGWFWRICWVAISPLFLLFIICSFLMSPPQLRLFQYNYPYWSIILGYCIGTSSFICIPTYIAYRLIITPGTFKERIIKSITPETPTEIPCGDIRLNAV
Sequence of D(2) dopamine receptor (Homo sapiens) (P14416 whole entry): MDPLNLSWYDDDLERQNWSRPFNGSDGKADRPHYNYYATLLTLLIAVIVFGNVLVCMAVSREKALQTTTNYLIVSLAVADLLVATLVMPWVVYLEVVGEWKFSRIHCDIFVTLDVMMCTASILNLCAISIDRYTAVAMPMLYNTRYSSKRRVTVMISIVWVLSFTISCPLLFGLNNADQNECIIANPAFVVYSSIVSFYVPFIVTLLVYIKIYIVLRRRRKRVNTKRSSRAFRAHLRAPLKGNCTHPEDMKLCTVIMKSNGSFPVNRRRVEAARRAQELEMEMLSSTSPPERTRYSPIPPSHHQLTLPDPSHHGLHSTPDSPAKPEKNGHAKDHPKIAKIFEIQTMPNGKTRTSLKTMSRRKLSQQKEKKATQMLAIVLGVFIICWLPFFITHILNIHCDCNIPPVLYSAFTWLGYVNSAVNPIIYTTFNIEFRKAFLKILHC
Sequence of Beta-3 adrenergic receptor (Homo sapiens) (P13945 whole entry, looked up): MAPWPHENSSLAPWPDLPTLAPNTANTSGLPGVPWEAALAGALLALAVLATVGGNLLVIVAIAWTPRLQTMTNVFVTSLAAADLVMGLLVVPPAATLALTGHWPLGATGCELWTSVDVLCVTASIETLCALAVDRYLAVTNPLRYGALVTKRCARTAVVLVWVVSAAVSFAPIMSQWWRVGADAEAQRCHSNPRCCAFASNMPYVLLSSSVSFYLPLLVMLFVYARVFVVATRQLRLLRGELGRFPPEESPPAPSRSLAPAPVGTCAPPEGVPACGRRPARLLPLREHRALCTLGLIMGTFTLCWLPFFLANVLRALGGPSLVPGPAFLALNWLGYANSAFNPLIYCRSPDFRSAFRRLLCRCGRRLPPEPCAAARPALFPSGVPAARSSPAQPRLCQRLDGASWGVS
Sequence of 5-hydroxytryptamine receptor 7 (Homo sapiens) (P34969 whole entry): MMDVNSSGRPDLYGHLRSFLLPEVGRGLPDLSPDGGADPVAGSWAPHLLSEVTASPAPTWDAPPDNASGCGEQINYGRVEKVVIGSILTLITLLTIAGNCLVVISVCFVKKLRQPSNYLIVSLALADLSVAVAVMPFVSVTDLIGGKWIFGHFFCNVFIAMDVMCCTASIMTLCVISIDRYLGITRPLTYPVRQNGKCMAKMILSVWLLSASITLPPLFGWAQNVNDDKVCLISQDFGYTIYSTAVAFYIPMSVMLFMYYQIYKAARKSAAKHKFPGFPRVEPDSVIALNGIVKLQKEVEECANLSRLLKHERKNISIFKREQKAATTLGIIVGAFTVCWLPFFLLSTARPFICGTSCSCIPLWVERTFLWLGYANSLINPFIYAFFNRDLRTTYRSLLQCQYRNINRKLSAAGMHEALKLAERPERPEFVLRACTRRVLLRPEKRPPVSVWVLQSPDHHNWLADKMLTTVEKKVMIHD
Sequence of 5-hydroxytryptamine receptor 5A (Homo sapiens) (P47898 whole entry): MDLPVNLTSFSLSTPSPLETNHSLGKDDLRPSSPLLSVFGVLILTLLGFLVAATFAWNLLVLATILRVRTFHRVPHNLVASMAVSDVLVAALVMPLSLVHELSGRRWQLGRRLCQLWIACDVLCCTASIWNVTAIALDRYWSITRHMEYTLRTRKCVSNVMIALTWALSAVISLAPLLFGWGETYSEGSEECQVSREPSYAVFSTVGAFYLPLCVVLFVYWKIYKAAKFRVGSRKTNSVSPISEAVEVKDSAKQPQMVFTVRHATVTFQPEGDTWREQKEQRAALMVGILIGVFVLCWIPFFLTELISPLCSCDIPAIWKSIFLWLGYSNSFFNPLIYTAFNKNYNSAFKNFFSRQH
Sequence of Translocator protein (Homo sapiens) (P30536 whole entry): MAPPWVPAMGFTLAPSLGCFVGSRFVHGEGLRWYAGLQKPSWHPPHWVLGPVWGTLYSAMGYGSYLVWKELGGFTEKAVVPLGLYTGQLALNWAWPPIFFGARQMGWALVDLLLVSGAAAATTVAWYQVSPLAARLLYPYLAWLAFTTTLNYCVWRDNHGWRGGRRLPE

Structure (SMILES)	inhibition [1]	inhibition [2]	inhibition [3]	inhibition [4]	inhibition [5]	inhibition [6]	inhibition [7]	inhibition [8]	inhibition [9]	inhibition [10]	inhibition [11]	inhibition [12]	inhibition [13]	inhibition [14]	inhibition [15]	inhibition [16]
CNc1nc(NCc2ccc(NS(C)(=O)=O)cc2Cl)cc(-c2ccccn2)n1	56.5%	12%	18%	-5.61%	54.8%	75.4%	15%	6.84%	50.4%	-4.41%	47.6%	77.9%	42.1%	3.99%	0.99%	87.2%
CN1CCCC(n2nc(Cc3ccc(Cl)cc3)c3ccccc3c2=O)CC1 (stereo not drawn)	83.9%	–	22.8%	36.1%	12.9%	80.8%	61.5%	43.1%	64.5%	79.1%	25.9%	80.4%	19.8%	66.5%	5.72%	91.9%
Cc1c(P(=S)(c2ccccc2)c2ccccc2)n2ccccc2[n+]1C/C=C/c1ccccc1	48.5%	67.1%	76.4%	57.4%	6.66%	42.1%	68.2%	89%	101%	49%	83.2%	34.3%	29.7%	45.4%	54.3%	67.2%
Cc1cn2cc(CC(=O)N3CCC4(CC3)CN(Cc3ccc(-n5nccn5)cc3Cl)C4)nc2s1	71.1%	30.4%	60.1%	68.5%	0.99%	8.61%	25.6%	71.8%	35.9%	25.1%	44.2%	–	11.6%	–	13%	52.1%
O=C(O)C1CN(Cc2ccc(OCc3ccc(Cl)c(Cl)c3)cc2)C1	39.5%	86%	29.6%	-5.07%	3.35%	23.4%	-2.67%	-2.07%	10%	–	31.9%	-9.54%	-9.84%	–	13.2%	76.9%
N[C@H](C(=O)O)c1ccc(C(=O)O)c(C(=O)O)c1	62.5%	11.7%	-1.13%	45%	13.8%	-7.78%	18.2%	14.1%	-9.35%	13.7%	44%	–	69.3%	-2.1%	8.99%	6.26%
c1cc(CN2CCCNCCNCCCNCC2)ccc1CN1CCCNCCNCCCNCC1	37.2%	-5.42%	0.23%	67.7%	7.76%	–	34.5%	1.58%	66.3%	-1.67%	53.6%	–	22.7%	4.06%	-6.66%	15.3%
Cc1cc([C@@H](C)Nc2cccc(-c3cc(C)c(C(=O)N[C@@H](C)C(=O)O)c(C)c3)c2)ccc1Cl	58.6%	2.32%	22.5%	2.88%	62.7%	11.6%	70.7%	–	-1.32%	7.32%	56.6%	2.27%	-8.16%	12.1%	3.66%	20%
CCC[C@H](Oc1cc(C)c(-n2cc(C(F)(F)F)cn2)c(C)c1)c1ccc(C(=O)NCCC(=O)O)cc1	–	7.56%	-8.24%	-6.26%	28.7%	8.62%	65.4%	70.1%	5.06%	8.21%	–	-2.87%	-5.66%	12.2%	-2.47%	1.84%
